Laboratory results: patent US11345681B1, “Inhibitors of fibroblast growth factor receptor kinases” (Kinnate Biopharma Inc., priority 2020, dated 2022)

biological target: Wild type FGFR2 (Homo sapiens (Human), UniProt P21802); assay: FGFR2 kinase assay (fluorescence-based microfluidic mobility shift assay); type: biochemical; details: wild type FGFR2 0.06 nM, 100 μM ATP, 80 minutes at room temperature; class symbols
Sequence (P21802 22-821): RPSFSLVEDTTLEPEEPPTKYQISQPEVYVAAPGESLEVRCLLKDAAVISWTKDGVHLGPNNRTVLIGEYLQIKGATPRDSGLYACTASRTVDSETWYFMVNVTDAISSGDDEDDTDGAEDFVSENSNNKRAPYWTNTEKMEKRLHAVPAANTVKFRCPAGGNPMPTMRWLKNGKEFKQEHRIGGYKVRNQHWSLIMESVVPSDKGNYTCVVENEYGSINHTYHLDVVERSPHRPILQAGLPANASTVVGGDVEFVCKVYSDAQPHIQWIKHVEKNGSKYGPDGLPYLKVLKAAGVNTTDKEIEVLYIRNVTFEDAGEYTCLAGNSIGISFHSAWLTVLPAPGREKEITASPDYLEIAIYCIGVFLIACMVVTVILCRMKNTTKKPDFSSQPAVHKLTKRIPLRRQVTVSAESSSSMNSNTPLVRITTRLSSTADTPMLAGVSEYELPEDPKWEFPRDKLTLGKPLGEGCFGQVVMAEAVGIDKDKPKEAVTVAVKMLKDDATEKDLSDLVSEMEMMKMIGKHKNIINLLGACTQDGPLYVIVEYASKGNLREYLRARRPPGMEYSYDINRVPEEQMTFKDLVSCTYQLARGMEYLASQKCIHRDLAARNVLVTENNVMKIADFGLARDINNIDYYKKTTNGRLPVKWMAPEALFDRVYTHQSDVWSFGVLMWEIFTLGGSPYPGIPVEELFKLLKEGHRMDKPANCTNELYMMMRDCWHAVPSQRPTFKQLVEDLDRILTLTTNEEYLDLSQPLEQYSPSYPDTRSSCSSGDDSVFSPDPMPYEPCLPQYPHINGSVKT

Row | Compound | IC50 [µM]
1 | C=CC(=O)N1C[C@@H](n2nc(C#Cc3c(F)cc4c(ncn4C4CC4)c3F)c(C(N)=O)c2N)C[C@@H]1CO [Example 201, 5-Amino-3-[2-(1-cyclopropyl-4,6-difluoro-1,3-benzodiazol-5-yl)ethynyl]-[(3S,5R)-5-(hydroxymethyl)-1-(prop-2-enoyl)pyrrolidin-3-yl]pyrazole-4-carboxamide] | ≤ 0.1
2 | CNc1c(C(N)=O)c(C#Cc2cc3ncn(C4CC4)c3cc2F)nn1[C@H]1C[C@H](COC)N(C(=O)C#CC(C)(C)O)C1 [Example 203, 3-((1-Cyclopropyl-6-fluoro-1H-benzo[d]imidazol-5-yl)ethynyl)-1-((3S,5R)-1-(4-hydroxy-4-methylpent-2-ynoyl)-5-(methoxymethyl)pyrrolidin-3-yl)-5-(methylamino)-1H-pyrazole-4-carboxamide] | ≤ 0.1
3 | CNc1c(C(N)=O)c(C#Cc2cc3ncn(C4CC4)c3cc2F)nn1C1CN(C(=O)/C=C/CN(C)C)C1 [Example 204, 3-[2-(1-Cyclopropyl-6-fluoro-1,3-benzodiazol-5-yl)ethynyl]-1-{1-[(2E)-4-(dimethylamino)but-2-enoyl]azetidin-3-yl}-5-(methylamino)pyrazole-4-carboxamide] | 0.1 to 1
4 | C=CC(=O)N1C[C@@H](n2nc(C#Cc3cc4ncn(C5CC5)c4cc3F)c(C(N)=O)c2NCC)C[C@@H]1COC [Example 205, 1-((3S,5R)-1-Acryloyl-5-(methoxymethyl)pyrrolidin-3-yl)-3-((1-cyclopropyl-6-fluoro-1H-benzo[d]imidazol-5-yl)ethynyl)-5-(ethylamino)-1H-pyrazole-4-carboxamide] | ≤ 0.1
5 | C=CC(=O)N1C[C@@H](n2nc(C#Cc3cc4nc(C)n(C5CC5)c4cc3F)c(C(N)=O)c2N)C[C@@H]1COC [Example 206, 5-Amino-3-[2-(1-cyclopropyl-6-fluoro-2-methyl-1,3-benzodiazol-5-yl)ethynyl]-1-[(3S,5R)-5-(methoxymethyl)-1-(prop-2-enoyl)pyrrolidin-3-yl]pyrazole-4-carboxamide] | ≤ 0.1

Other lines, results leading:

Row | IC50 [µM] | Compound
6 | ≤ 0.1 | C=CC(=O)N1C[C@@H](n2nc(C#Cc3cc4ncn(C5CC5)c4cc3Cl)c(C(N)=O)c2N)C[C@@H]1COC [Example 200, 5-Amino-3-[2-(6-chloro-1-cyclopropyl-1,3-benzodiazol-5-yl)ethynyl]-1-[(3S,5R)-5-(methoxymethyl)-1-(prop-2-enoyl)pyrrolidin-3-yl]pyrazole-4-carboxamide]
7 | ≤ 0.1 | C=CC(=O)N1CC(n2nc(C#Cc3cc4ncn(C5CC5)c4cc3F)c(C(N)=O)c2N)C1 [Example 202, 5-Amino-3-[2-(1-cyclopropyl-6-fluoro-1,3-benzodiazol-5-yl)ethynyl]-1-[1-(prop-2-enoyl)azetidin-3-yl]pyrazole-4-carboxamide]
8 | ≤ 0.1 | C=CC(=O)N1C[C@@H](n2nc(C#Cc3cc4ncn(C5CC5)c4cc3F)c(C(N)=O)c2N)C[C@@H]1CO [Example 207, 5-Amino-3-[2-(1-cyclopropyl-6-fluoro-1,3-benzodiazol-5-yl)ethynyl]-1-[(3S,5R)-5-(hydroxymethyl)-1-(prop-2-enoyl)pyrrolidin-3-yl]pyrazole-4-carboxamide]
9 | ≤ 0.1 | C=CC(=O)N1CC(n2nc(C#Cc3cc4ncn(C5CC5)c4cc3Cl)c(C(N)=O)c2N)C1 [Example 208, 5-Amino-3-[2-(6-chloro-1-cyclopropyl-1,3-benzodiazol-5-yl)ethynyl]-1-[1-(prop-2-enoyl)azetidin-3-yl]pyrazole-4-carboxamide]
10 | ≤ 0.1 | C=CC(=O)N1CC(n2nc(C#Cc3cc4ncn(CC)c4cc3Cl)c(C(N)=O)c2N)C1 [Example 209, 5-Amino-3-[2-(6-chloro-1-ethyl-1,3-benzodiazol-5-yl)ethynyl]-1-[1-(prop-2-enoyl)azetidin-3-yl]pyrazole-4-carboxamide]
11 | ≤ 0.1 | C=CC(=O)N1CC(n2nc(C#Cc3c(F)cc4c(ncn4C4CC4)c3F)c(C(N)=O)c2N)C1 [Example 210, 5-Amino-3-[2-(1-cyclopropyl-4,6-difluoro-1,3-benzodiazol-5-yl)ethynyl]-1-[1-(prop-2-enoyl)azetidin-3-yl]pyrazole-4-carboxamide]
